Measured values: US9149038B2, “4-amino-6-(heterocyclic)picolinates and 6-amino-2-(heterocyclic)pyrimidine-4-carboxylates and their use as herbicides” (Dow AgroSciences LLC, priority 2013, dated 2015)
Where two headings read alike, the source gives them in different places.

Experiments:
[1] = tested on: Key Grass and Sedge Weeds as well as Grass Crops; assay: Post-Emergent Test II: postemergent herbicidal activity, visual rating after 14 d (Table 8); format: in vivo; details: post-emergence, 336 h; for pest or weed control at 35 g/ha: 35 g ai/ha; for pest or weed control at 70 g/ha: 70 g ai/ha; for pest or weed control at 140 g/ha: 140 g ai/ha
Outline: (§1)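 Visual 0-100% injury score (0 no injury, 100 complete kill) at 14 d post-spray, relative to untreated plants. Seedlings at 1st-2nd true leaf stage; track sprayer at 187 L/ha, highest rate plus ½×, ¼×, ⅛×, 1/16× serial dilutions. Subirrigated after treatment.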

[2] = tested on: Key Broadleaf Weed and Crop Species; assay: Post-Emergent Test II: postemergent herbicidal activity, visual rating after 14 d (Table 7); format: in vivo; details: post-emergence, 336 h; for pest or weed control at 35 g/ha: 35 g ai/ha; for pest or weed control at 70 g/ha: 70 g ai/ha; for pest or weed control at 140 g/ha: 140 g ai/ha
Outline: as §1

[3] = barnyardgrass (Echinochloa crus-galli), read-out: Visual Growth Reduction (%) 14 Days After Application ECHCG
[4] = giant foxtail (Setaria faberi), read-out: Visual Growth Reduction (%) 14 Days After Application SETFA
[5] = maize, corn (Zea mays), read-out: Visual Growth Reduction (%) 14 Days After Application ZEAMX
[6] = rice (Oryza sativa), read-out: Visual Growth Reduction (%) 14 Days After Application ORYSA
[7] = wheat, spring (Triticum aestivum), read-out: Visual Growth Reduction (%) 14 Days After Application TRZAS
[8] = yellow nutsedge (Cyperus esculentus), read-out: Visual Growth Reduction (%) 14 Days After Application CYPES
[9] = lambsquarters (Chenopodium album), read-out: Visual Growth Reduction (%) 14 Days After Application CHEAL
[10] = oilseed rape, canola (Brassica napus), read-out: Visual Growth Reduction (%) 14 Days After Application BRSNN
[11] = redroot pigweed (Amaranthus retroflexus), read-out: Visual Growth Reduction (%) 14 Days After Application AMARE
[12] = sunflower (Helianthus annuus), read-out: Visual Growth Reduction (%) 14 Days After Application HELAN
[13] = velvetleaf (Abutilon theophrasti), read-out: Visual Growth Reduction (%) 14 Days After Application ABUTH
[14] = wild poinsettia (Euphorbia heterophylla), read-out: Visual Growth Reduction (%) 14 Days After Application EPHHL

Compound COC(=O)c1nc(-c2cc3c(cc2F)OCO3)c(F)c(N)c1OC [Compound 26] has a pest or weed control at 35 g/ha [1, 3] of 45 to 59%, a pest or weed control at 70 g/ha [1, 3] of 60 to 74% and a pest or weed control at 140 g/ha [1, 3] of 75 to 84%. It also gave a pest or weed control at 35 g/ha [1, 4] of 0 to 29%, a pest or weed control at 70 g/ha [1, 4] of 0 to 29% and a pest or weed control at 140 g/ha [1, 4] of 0 to 29%. For the same compound, the pest or weed control at 35 g/ha [1, 5] was 45 to 59%, the pest or weed control at 70 g/ha [1, 5] was 45 to 59% and the pest or weed control at 140 g/ha [1, 5] was 60 to 74%. The pest or weed control at 35 g/ha [1, 6] was 0 to 29%, the pest or weed control at 70 g/ha [1, 6] was 0 to 29% and the pest or weed control at 140 g/ha [1, 6] was 0 to 29%. It also gave a pest or weed control at 35 g/ha [1, 7] of 0 to 29%, a pest or weed control at 70 g/ha [1, 7] of 0 to 29% and a pest or weed control at 140 g/ha [1, 7] of 0 to 29%. It also gave a pest or weed control at 35 g/ha [1, 8] of 0 to 29%, a pest or weed control at 70 g/ha [1, 8] of 0 to 29% and a pest or weed control at 140 g/ha [1, 8] of 0 to 29%. For the same compound, the pest or weed control at 35 g/ha [2, 9] was 0 to 29%, the pest or weed control at 70 g/ha [2, 9] was 0 to 29% and the pest or weed control at 140 g/ha [2, 9] was 0 to 29%. The pest or weed control at 35 g/ha [2, 10] was 45 to 59%, the pest or weed control at 70 g/ha [2, 10] was 60 to 74% and the pest or weed control at 140 g/ha [2, 10] was 75 to 84%. The pest or weed control at 35 g/ha [2, 11] was 0 to 29%, the pest or weed control at 70 g/ha [2, 11] was 0 to 29% and the pest or weed control at 140 g/ha [2, 11] was 85 to 94%. The pest or weed control at 35 g/ha [2, 12] was 85 to 94%, the pest or weed control at 70 g/ha [2, 12] was 95 to 100% and the pest or weed control at 140 g/ha [2, 12] was 95 to 100%. The pest or weed control at 35 g/ha [2, 13] was 0 to 29%, the pest or weed control at 70 g/ha [2, 13] was 0 to 29% and the pest or weed control at 140 g/ha [2, 13] was 0 to 29%. The pest or weed control at 35 g/ha [2, 14] was 95 to 100%, the pest or weed control at 70 g/ha [2, 14] was 95 to 100% and the pest or weed control at 140 g/ha [2, 14] was 95 to 100%.
In the case of COC(=O)c1nc(-c2ccc3c(c2)OC(F)(F)O3)c(Cl)c(N)c1Cl [Compound 1], the pest or weed control at 35 g/ha [1, 3] is reported as 45 to 59%, the pest or weed control at 70 g/ha [1, 3] is reported as 60 to 74% and the pest or weed control at 140 g/ha [1, 3] is reported as 60 to 74%. The pest or weed control at 35 g/ha [1, 4] was 0 to 29%, the pest or weed control at 70 g/ha [1, 4] was 45 to 59% and the pest or weed control at 140 g/ha [1, 4] was 45 to 59%. For the same compound, the pest or weed control at 35 g/ha [1, 5] was 60 to 74%, the pest or weed control at 70 g/ha [1, 5] was 60 to 74% and the pest or weed control at 140 g/ha [1, 5] was 60 to 74%. It also gave a pest or weed control at 35 g/ha [1, 6] of 0 to 29%, a pest or weed control at 70 g/ha [1, 6] of 0 to 29% and a pest or weed control at 140 g/ha [1, 6] of 0 to 29%. It also gave a pest or weed control at 35 g/ha [1, 7] of 0 to 29%, a pest or weed control at 70 g/ha [1, 7] of 0 to 29% and a pest or weed control at 140 g/ha [1, 7] of 0 to 29%. For the same compound, the pest or weed control at 35 g/ha [1, 8] was 0 to 29%, the pest or weed control at 70 g/ha [1, 8] was 0 to 29% and the pest or weed control at 140 g/ha [1, 8] was 0 to 29%. The pest or weed control at 35 g/ha [2, 9] was 0 to 29%, the pest or weed control at 70 g/ha [2, 9] was 0 to 29% and the pest or weed control at 140 g/ha [2, 9] was 0 to 29%. For the same compound, the pest or weed control at 35 g/ha [2, 10] was 0 to 29%, the pest or weed control at 70 g/ha [2, 10] was 0 to 29% and the pest or weed control at 140 g/ha [2, 10] was 0 to 29%. It also gave a pest or weed control at 35 g/ha [2, 11] of 0 to 29%, a pest or weed control at 70 g/ha [2, 11] of 0 to 29% and a pest or weed control at 140 g/ha [2, 11] of 0 to 29%. For the same compound, the pest or weed control at 35 g/ha [2, 12] was 85 to 94%, the pest or weed control at 70 g/ha [2, 12] was 85 to 94% and the pest or weed control at 140 g/ha [2, 12] was 85 to 94%. It also gave a pest or weed control at 35 g/ha [2, 13] of 0 to 29%, a pest or weed control at 70 g/ha [2, 13] of 0 to 29% and a pest or weed control at 140 g/ha [2, 13] of 0 to 29%. The pest or weed control at 35 g/ha [2, 14] was 0 to 29%, the pest or weed control at 70 g/ha [2, 14] was 0 to 29% and the pest or weed control at 140 g/ha [2, 14] was 0 to 29%.
Work on C=Cc1c(C(=O)O)nc(-c2cc3c(cc2F)OC(F)(F)O3)c(F)c1N [Compound 28] yielded a pest or weed control at 35 g/ha [1, 3] of 60 to 74%, a pest or weed control at 70 g/ha [1, 3] of 75 to 84% and a pest or weed control at 140 g/ha [1, 3] of 75 to 84%. It also gave a pest or weed control at 35 g/ha [1, 4] of 0 to 29%, a pest or weed control at 70 g/ha [1, 4] of 45 to 59% and a pest or weed control at 140 g/ha [1, 4] of 60 to 74%. The pest or weed control at 35 g/ha [1, 5] was 60 to 74%, the pest or weed control at 70 g/ha [1, 5] was 60 to 74% and the pest or weed control at 140 g/ha [1, 5] was 75 to 84%. It also gave a pest or weed control at 35 g/ha [1, 6] of 0 to 29%, a pest or weed control at 70 g/ha [1, 6] of 0 to 29% and a pest or weed control at 140 g/ha [1, 6] of 0 to 29%. The pest or weed control at 35 g/ha [1, 7] was 0 to 29%, the pest or weed control at 70 g/ha [1, 7] was 0 to 29% and the pest or weed control at 140 g/ha [1, 7] was 30 to 44%. The pest or weed control at 35 g/ha [1, 8] was 95 to 100%, the pest or weed control at 70 g/ha [1, 8] was 95 to 100% and the pest or weed control at 140 g/ha [1, 8] was 95 to 100%. For the same compound, the pest or weed control at 35 g/ha [2, 9] was 0 to 29%, the pest or weed control at 70 g/ha [2, 9] was 0 to 29% and the pest or weed control at 140 g/ha [2, 9] was 0 to 29%. For the same compound, the pest or weed control at 35 g/ha [2, 10] was 0 to 29%, the pest or weed control at 70 g/ha [2, 10] was 0 to 29% and the pest or weed control at 140 g/ha [2, 10] was 60 to 74%. For the same compound, the pest or weed control at 35 g/ha [2, 11] was 0 to 29%, the pest or weed control at 70 g/ha [2, 11] was 0 to 29% and the pest or weed control at 140 g/ha [2, 11] was 0 to 29%. The pest or weed control at 35 g/ha [2, 12] was 85 to 94%, the pest or weed control at 70 g/ha [2, 12] was 85 to 94% and the pest or weed control at 140 g/ha [2, 12] was 95 to 100%. For the same compound, the pest or weed control at 35 g/ha [2, 13] was 0 to 29%, the pest or weed control at 70 g/ha [2, 13] was 0 to 29% and the pest or weed control at 140 g/ha [2, 13] was 60 to 74%. The pest or weed control at 35 g/ha [2, 14] was 95 to 100%, the pest or weed control at 70 g/ha [2, 14] was 95 to 100% and the pest or weed control at 140 g/ha [2, 14] was 95 to 100%.
Compound COC(=O)c1nc(-c2cc3c(cc2F)OC(F)(F)O3)cc(N)c1Cl [Compound 32] has a pest or weed control at 35 g/ha [1, 3] of 60 to 74%, a pest or weed control at 70 g/ha [1, 3] of 75 to 84% and a pest or weed control at 140 g/ha [1, 3] of 75 to 84%. The pest or weed control at 35 g/ha [1, 5] was 60 to 74%, the pest or weed control at 70 g/ha [1, 5] was 60 to 74% and the pest or weed control at 140 g/ha [1, 5] was 75 to 84%. The pest or weed control at 35 g/ha [1, 6] was 0 to 29%, the pest or weed control at 70 g/ha [1, 6] was 0 to 29% and the pest or weed control at 140 g/ha [1, 6] was 0 to 29%. The pest or weed control at 35 g/ha [1, 7] was 45 to 59%, the pest or weed control at 70 g/ha [1, 7] was 60 to 74% and the pest or weed control at 140 g/ha [1, 7] was 60 to 74%. The pest or weed control at 35 g/ha [1, 8] was 95 to 100%, the pest or weed control at 70 g/ha [1, 8] was 95 to 100% and the pest or weed control at 140 g/ha [1, 8] was 95 to 100%. For the same compound, the pest or weed control at 35 g/ha [2, 9] was 95 to 100%, the pest or weed control at 70 g/ha [2, 9] was 95 to 100% and the pest or weed control at 140 g/ha [2, 9] was 95 to 100%. It also gave a pest or weed control at 35 g/ha [2, 10] of 60 to 74%, a pest or weed control at 70 g/ha [2, 10] of 60 to 74% and a pest or weed control at 140 g/ha [2, 10] of 75 to 84%. The pest or weed control at 35 g/ha [2, 11] was 0 to 29%, the pest or weed control at 70 g/ha [2, 11] was 45 to 59% and the pest or weed control at 140 g/ha [2, 11] was 75 to 84%. For the same compound, the pest or weed control at 35 g/ha [2, 12] was 75 to 84%, the pest or weed control at 70 g/ha [2, 12] was 75 to 84% and the pest or weed control at 140 g/ha [2, 12] was 75 to 84%. The pest or weed control at 35 g/ha [2, 13] was 85 to 94%, the pest or weed control at 70 g/ha [2, 13] was 85 to 94% and the pest or weed control at 140 g/ha [2, 13] was 85 to 94%. The pest or weed control at 35 g/ha [2, 14] was 0 to 29%, the pest or weed control at 70 g/ha [2, 14] was 60 to 74% and the pest or weed control at 140 g/ha [2, 14] was 60 to 74%.
